Data published in US20150211005A1, “MIRNA MODULATORS OF THERMOGENESIS” (APTAMIR THERAPEUTICS, INC., priority 2012, published 2015).

Columns and labels:
[1] = tested on: human subcutaneous adipocytes; assay: Phenotypic changes of mature adipocytes cultured two weeks, bright field microscopy; format: cell-based; conditions: day 28; for Average size of lipid droplet: change versus control (Ref); for Average size of lipid droplet / Picture field covered by adipocytes (% of control) / Cell area occupied by lipid droplets (%) / Number of lipid droplet per cell: 50 nM miRNA analogs, 10 μM CL316,243, 10 nM T3, 100 nM Rosiglitazone; for Picture field covered by adipocytes (% of control): Dharmafect 4; for Cell area occupied by lipid droplets (%): control 42%; for Number of lipid droplet per cell: control 68
Experimental: Human subcutaneous adipocytes were plated in 6-well plates at a density of 391,000 cells per well as described above. Using Dharmafect 4, these adipocytes were transfected at Day 14 with:
1. […] A negative control (mock transfection) 3.
At day 17, the cells were switched to maintenance medium, which was then changed every two-three days until day 28 when bright field microscopy pictures of the cells were taken.

UCP3 = assay: RNA-Seq mRNA expression during pre-adipocyte differentiation: UCP3; format: cell-based, human; conditions: pre-adipocytes, 12 days, rosiglitazone 100 nM renewed every other day, miRNA analogs 25 nM, one transfection
Experimental: (§1) In order to assess the effect of miRNA analogs on human pre-adipocytes differentiation into mature adipocytes, human subcutaneous pre-adipocytes (SuperLot 0048 from 8 female donors, ZenBio, NC) were plated on Day 0 into 96-well plates and allowed to attach overnight in preadipocyte medium (DMEM/Ham's F-12 (1:1, v/v), HEPES buffer, Fetal bovine serum and Antibiotics). […] All treatments were in triplicate. Post transfection, the negative control was maintenance medium only and the positive control was maintenance medium with 100 nM of the PPARG agonist rosiglitazone. After 2 days, medium was removed and replaced with fresh maintenance medium. The maintenance medium then changed every two days until the end of the treatment period (Day 15). At the end of the treatment (total of 15 days in culture) cells were processed for Phenotyping and Genotyping Screening.
(§2) Profiling of mRNA changes occurring during the differentiation of human pre-adipocyte into mature adipocyte induced by rosiglitazone or miRNA analogs was performed by RNA-Seq technology. […]
(§3) Changes in mRNA expression of UCP1, 2 and 3 were also measured in the presence of rosiglitazone or miRNA analogs, as shown below in Table 18.

UCP1 = assay: RNA-Seq mRNA expression during pre-adipocyte differentiation: UCP1; format: cell-based, human; conditions: pre-adipocytes, 12 days, rosiglitazone 100 nM renewed every other day, miRNA analogs 25 nM, one transfection
Experimental: as §1, §2, §3

Row | SMILES | Average size of lipid droplet [1] [%] | Picture field covered by adipocytes (% of control) [1] | Cell area occupied by lipid droplets (%) [1] [%] | Number of lipid droplet per cell [1] | cell density and browning appearance (bright field, FIG. 22) ([1]; in reference to the control condition) | mRNA Expression changes UCP3 (UCP3) [log ratios] | mRNA Expression changes UCP1 (UCP1) [log ratios]
1 | C[C@H](Cc1ccc2c(c1)OC(C(=O)[O-])(C(=O)[O-])O2)NC[C@H](O)c1cccc(Cl)c1.[Na+].[Na+] [CL316,243] | −44 | +24% of control | 44 | 124 | increase in cell density and “browning” appearance | – | –
2 | CN(CCOc1ccc(CC2SC(=O)NC2=O)cc1)c1ccccn1 (centres unmarked) [Rosiglitazone] | −19 | +198% of control | 57 | 113 | – | 0.26 | 15.70
